Results reported in PMC6325563 (eNeuro, 2019).

What was measured:
Test in all cases: two-electrode voltage clamp, Xenopus oocytes
Format in all cases: cell-based
[1] = target: T1, (α4)3(β2)2 nAChR (low sensitivity) (Rattus norvegicus, UniProt P09483+P12390)
T1 construct: gene Chrna4; subunits in pGEMhe, mRNA alpha4:beta2 10:1 injected in Xenopus laevis oocytes; pentamer
From the text: (§1) two-electrode voltage clamp, Xenopus oocytes on (α4)3(β2)2 nAChR (low sensitivity)

[2] = target: T2, (α4)2(β2)3 nAChR (high sensitivity) (Rattus norvegicus, UniProt P09483+P12390)
T2 construct: gene Chrna4; subunits in pGEMhe, mRNA alpha4:beta2 1:10 injected in Xenopus laevis oocytes; pentamer
From the text: (§2) two-electrode voltage clamp, Xenopus oocytes on (α4)2(β2)3 nAChR (high sensitivity)

α5[wt](α4[wt]β2[wt])2 = target: T3, α5[wt](α4[wt]β2[wt])2 (Rattus norvegicus, UniProt P09483+P12390); conditions: read-out: IC50 (μM (-)-menthol) ± SEM
T3 construct: gene Chrna4; Xenopus laevis oocytes; alpha5 in the auxiliary position of alpha4beta2
From the text: two-electrode voltage clamp, Xenopus oocytes on α5[wt](α4[wt]β2[wt])2

[3] = target: T4, (α4)3(β2)2 nAChR (low sensitivity) (Rattus norvegicus, UniProt P09483+P12390, P09483:L285I); conditions: read-out: IC50 (μM (-)-menthol) ± SEM
T4 construct: gene Chrna4; subunits in pGEMhe, mRNA alpha4:beta2 10:1 injected in Xenopus laevis oocytes; pentamer
From the text: as §1

[4] = target: T5, (α4)3(β2)2 nAChR (low sensitivity) (Rattus norvegicus, UniProt P09483+P12390, P09483:L285M); conditions: read-out: IC50 (μM (-)-menthol) ± SEM
T5 construct: gene Chrna4; subunits in pGEMhe, mRNA alpha4:beta2 10:1 injected in Xenopus laevis oocytes; pentamer
From the text: as §1

[5] = target: T6, (α4)3(β2)2 nAChR (low sensitivity) (Rattus norvegicus, UniProt P09483+P12390, P09483:S286L); conditions: read-out: IC50 (μM (-)-menthol) ± SEM
T6 construct: gene Chrna4; subunits in pGEMhe, mRNA alpha4:beta2 10:1 injected in Xenopus laevis oocytes; pentamer
From the text: as §1

[6] = target: T7, (α4)2(β2)3 nAChR (high sensitivity) (Rattus norvegicus, UniProt P09483+P12390, P09483:L285C); conditions: read-out: IC50 (μM (-)-menthol) ± SEM
T7 construct: gene Chrna4; subunits in pGEMhe, mRNA alpha4:beta2 1:10 injected in Xenopus laevis oocytes; pentamer
From the text: as §2

[7] = target: T8, (α4)2(β2)3 nAChR (high sensitivity) (Rattus norvegicus, UniProt P09483+P12390, P09483:L285F); conditions: read-out: IC50 (μM (-)-menthol) ± SEM
T8 construct: gene Chrna4; subunits in pGEMhe, mRNA alpha4:beta2 1:10 injected in Xenopus laevis oocytes; pentamer
From the text: as §2

[8] = target: T9, (α4)2(β2)3 nAChR (high sensitivity) (Rattus norvegicus, UniProt P09483+P12390, P09483:L285I); conditions: read-out: IC50 (μM (-)-menthol) ± SEM
T9 construct: gene Chrna4; subunits in pGEMhe, mRNA alpha4:beta2 1:10 injected in Xenopus laevis oocytes; pentamer
From the text: as §2

[9] = target: T10, (α4)2(β2)3 nAChR (high sensitivity) (Rattus norvegicus, UniProt P09483+P12390, P09483:L285M); conditions: read-out: IC50 (μM (-)-menthol) ± SEM
T10 construct: gene Chrna4; subunits in pGEMhe, mRNA alpha4:beta2 1:10 injected in Xenopus laevis oocytes; pentamer
From the text: as §2

[10] = target: T11, (α4)2(β2)3 nAChR (high sensitivity) (Rattus norvegicus, UniProt P09483+P12390, P09483:L285Q); conditions: read-out: IC50 (μM (-)-menthol) ± SEM
T11 construct: gene Chrna4; subunits in pGEMhe, mRNA alpha4:beta2 1:10 injected in Xenopus laevis oocytes; pentamer
From the text: as §2

[11] = target: T12, (α4)2(β2)3 nAChR (high sensitivity) (Rattus norvegicus, UniProt P09483+P12390, P09483:L285S); conditions: read-out: IC50 (μM (-)-menthol) ± SEM
T12 construct: gene Chrna4; subunits in pGEMhe, mRNA alpha4:beta2 1:10 injected in Xenopus laevis oocytes; pentamer
From the text: as §2

[12] = target: T13, (α4)2(β2)3 nAChR (high sensitivity) (Rattus norvegicus, UniProt P09483+P12390, P09483:L285W); conditions: read-out: IC50 (μM (-)-menthol) ± SEM
T13 construct: gene Chrna4; subunits in pGEMhe, mRNA alpha4:beta2 1:10 injected in Xenopus laevis oocytes; pentamer
From the text: as §2

T1 sequence (P09483 31-630): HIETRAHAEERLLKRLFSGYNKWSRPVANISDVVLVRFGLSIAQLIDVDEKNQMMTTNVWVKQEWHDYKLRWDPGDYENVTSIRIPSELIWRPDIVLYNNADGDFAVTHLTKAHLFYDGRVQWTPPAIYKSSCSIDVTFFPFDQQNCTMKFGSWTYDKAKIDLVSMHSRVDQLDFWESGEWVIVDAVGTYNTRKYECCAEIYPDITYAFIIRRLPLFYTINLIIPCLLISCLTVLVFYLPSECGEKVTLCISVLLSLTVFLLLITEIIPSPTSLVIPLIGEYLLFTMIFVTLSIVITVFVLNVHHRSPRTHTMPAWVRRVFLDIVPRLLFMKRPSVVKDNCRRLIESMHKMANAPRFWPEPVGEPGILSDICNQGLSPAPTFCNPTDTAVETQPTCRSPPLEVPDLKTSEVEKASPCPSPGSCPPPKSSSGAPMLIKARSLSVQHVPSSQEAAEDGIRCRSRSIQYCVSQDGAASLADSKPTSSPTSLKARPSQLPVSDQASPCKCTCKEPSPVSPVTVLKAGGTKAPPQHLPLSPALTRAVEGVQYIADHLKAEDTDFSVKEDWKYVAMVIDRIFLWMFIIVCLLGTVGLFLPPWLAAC
T1 sequence (P12390 25-500): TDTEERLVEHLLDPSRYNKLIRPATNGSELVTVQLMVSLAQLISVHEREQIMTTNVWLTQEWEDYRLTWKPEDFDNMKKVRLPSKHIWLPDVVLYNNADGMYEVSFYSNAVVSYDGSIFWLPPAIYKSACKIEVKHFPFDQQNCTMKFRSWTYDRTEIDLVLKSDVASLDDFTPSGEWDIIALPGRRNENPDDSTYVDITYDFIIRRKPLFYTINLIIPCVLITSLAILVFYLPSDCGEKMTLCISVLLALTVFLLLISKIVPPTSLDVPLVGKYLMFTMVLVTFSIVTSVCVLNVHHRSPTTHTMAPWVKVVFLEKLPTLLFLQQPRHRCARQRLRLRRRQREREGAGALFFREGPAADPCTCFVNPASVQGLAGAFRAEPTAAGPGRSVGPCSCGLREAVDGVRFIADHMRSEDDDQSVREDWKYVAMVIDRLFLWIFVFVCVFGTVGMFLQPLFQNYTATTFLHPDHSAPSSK
T2 sequence (P09483 31-630): as the sequence (P09483 31-630) above
T2 sequence (P12390 25-500): as the sequence (P12390 25-500) above
T9 sequence (P09483 31-630 L285I): as the sequence (P09483 31-630) above, with L255I counted along it
T9 sequence (P12390 25-500): as the sequence (P12390 25-500) above
T4 sequence (P09483 31-630 L285I): as the sequence (P09483 31-630) above, with L255I counted along it
T4 sequence (P12390 25-500): as the sequence (P12390 25-500) above
T12 sequence (P09483 31-630 L285S): as the sequence (P09483 31-630) above, with L255S counted along it
T12 sequence (P12390 25-500): as the sequence (P12390 25-500) above
T8 sequence (P09483 31-630 L285F): as the sequence (P09483 31-630) above, with L255F counted along it
T8 sequence (P12390 25-500): as the sequence (P12390 25-500) above
T13 sequence (P09483 31-630 L285W): as the sequence (P09483 31-630) above, with L255W counted along it
T13 sequence (P12390 25-500): as the sequence (P12390 25-500) above
T11 sequence (P09483 31-630 L285Q): as the sequence (P09483 31-630) above, with L255Q counted along it
T11 sequence (P12390 25-500): as the sequence (P12390 25-500) above
T6 sequence (P09483 31-630 S286L): as the sequence (P09483 31-630) above, with S256L counted along it
T6 sequence (P12390 25-500): as the sequence (P12390 25-500) above
T10 sequence (P09483 31-630 L285M): as the sequence (P09483 31-630) above, with L255M counted along it
T10 sequence (P12390 25-500): as the sequence (P12390 25-500) above
T5 sequence (P09483 31-630 L285M): as the sequence (P09483 31-630) above, with L255M counted along it
T5 sequence (P12390 25-500): as the sequence (P12390 25-500) above
T3 sequence (P09483 31-630): as the sequence (P09483 31-630) above
T3 sequence (P12390 25-500): as the sequence (P12390 25-500) above
T3 sequence (P20420 28-452 partner): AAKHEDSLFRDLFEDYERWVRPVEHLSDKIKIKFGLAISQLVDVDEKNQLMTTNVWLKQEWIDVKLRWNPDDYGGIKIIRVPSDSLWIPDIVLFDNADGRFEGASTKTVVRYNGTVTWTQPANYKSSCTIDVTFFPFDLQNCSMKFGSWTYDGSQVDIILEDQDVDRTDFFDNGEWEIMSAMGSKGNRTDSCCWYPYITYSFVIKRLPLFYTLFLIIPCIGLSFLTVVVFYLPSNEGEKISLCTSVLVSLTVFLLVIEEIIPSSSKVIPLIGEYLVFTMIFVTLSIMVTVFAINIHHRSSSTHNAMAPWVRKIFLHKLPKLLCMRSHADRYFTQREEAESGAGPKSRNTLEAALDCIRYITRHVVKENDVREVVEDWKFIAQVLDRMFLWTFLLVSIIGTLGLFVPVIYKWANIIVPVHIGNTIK
T7 sequence (P09483 31-630 L285C): as the sequence (P09483 31-630) above, with L255C counted along it
T7 sequence (P12390 25-500): as the sequence (P12390 25-500) above

SMILES	IC50 [1] [µM]	IC50 [2] [µM]	IC50 (α5[wt](α4[wt]β2[wt])2) [µM]	IC50 [3] [µM]	IC50 [4] [µM]	IC50 [5] [µM]	IC50 [6] [µM]	IC50 [7] [µM]	IC50 [8] [µM]	IC50 [9] [µM]	IC50 [10] [µM]	IC50 [11] [µM]	IC50 [12] [µM]
CC(C)[C@H]1CC[C@H](C)C[C@@H]1O [(+)-menthol]	45.5 ± 2.03	48.3 ± 1.67											
CC(C)[C@@H]1CC[C@@H](C)C[C@H]1O [(−)-menthol]	33.1 ± 1.83	44.9 ± 1.62	51 ± 9.06	127 ± 29.1	39.2 ± 7.98	29.4 ± 4.32	306 ± 173	211 ± 75.6	97.3 ± 38.5	26.6 ± 1.9	165 ± 28.1	514 ± 361	28.8 ± 3.26
